Assay results as given in ChEMBL document CHEMBL5376014, “Role of heterocycles in inhibition of VEGFR-2 - a recent update (2019-2022)” (RSC Med Chem, 2024).

How the values were obtained:
[1] = molecular target: T1, Vascular endothelial growth factor receptor 2 (Homo sapiens, UniProt P35968); assay: Inhibition of VEGFR-2 (978 to 1408 residues) (unknown origin) using pEY (4:1) as substrate for 20 min in the presence of ATP by ELISA method
[2] = molecular target: T1, Vascular endothelial growth factor receptor 2; assay: Inhibition of human recombinant VEGFR-2 kinase activity using poly(Glu-Tyr) at 4:1 ratio as substrate incubated for 60 mins by ELISA
[3] = molecular target: T1, Vascular endothelial growth factor receptor 2; assay: Inhibition of human recombinant VEGFR-2 expressed in Sf21 insect cells incubated for 60 mins by ELISA
MDA-MB-231 [4] = assay: Antiproliferative activity against human MDA-MB-231 cells assessed as cell growth inhibition measured after 48 hrs by MTT assay; assay type: functional, cell-based; conditions: MDA-MB-231, 48 h
[5] = molecular target: T1, Vascular endothelial growth factor receptor 2; assay: Inhibition of human recombinant VEGFR-2 kinase activity using poly(Glu-Tyr) at 4:1 ratio as substrate incubated for 60 mins by ELISA method
[6] = molecular target: T1, Vascular endothelial growth factor receptor 2; assay: Inhibition of human VEGFR-2
[7] = molecular target: T1, Vascular endothelial growth factor receptor 2; assay: Inhibition of human recombinant VEGFR-2 in the presence of ATP
[8] = molecular target: T1, Vascular endothelial growth factor receptor 2; assay: Inhibition of VEGFR-2 (unknown origin) kinase activity using poly(Glu-Tyr) at 4:1 ratio as substrate in presence of ATP incubated for 1 hr by ELISA
[9] = molecular target: T1, Vascular endothelial growth factor receptor 2; assay: Inhibition of recombinant VEGFR-2 (unknown origin)
[10] = molecular target: T1, Vascular endothelial growth factor receptor 2; assay: Inhibition of VEGFR-2 (unknown origin) incubated for 45 mins by ELISA
[11] = Inhibition of tyrosine kinase in human PANC-1 cells; assay type: cell-based
PC-3 = assay: Antiproliferative activity against human PC-3 cells assessed as inhibition of cell growth incubated for 48 hrs by MTT assay; assay type: functional, cell-based; conditions: PC-3, 48 h
HepG2 [12] = assay: Antiproliferative activity against human HepG2 cells assessed as reduction in cell viability by MTT assay; assay type: functional, cell-based
MCF7 [13] = assay: Antiproliferative activity against human MCF7 cells assessed as reduction in cell viability incubated for 24 hrs by MTT assay; assay type: functional, cell-based; conditions: MCF7, 24 h
[14] = molecular target: T1, Vascular endothelial growth factor receptor 2; assay: Inhibition of VEGFR-2 (unknown origin) incubated for […] by ELISA method
[15] = molecular target: T1, Vascular endothelial growth factor receptor 2; assay: Inhibition of VEGFR-2 (unknown origin) kinase activity using poly(Glu-Tyr) at 4:1 ratio as substrate in presence of ATP incubated for 5 mins by ELISA method
[16] = molecular target: T1, Vascular endothelial growth factor receptor 2; assay: Inhibition of VEGFR-2 (unknown origin)
MCF7 [17] = assay: Cytotoxicity against human MCF7 cells assessed as cell growth inhibition; assay type: functional, cell-based
HepG2 [18] = assay: Cytotoxicity against human HepG2 cells assessed as cell growth inhibition; assay type: functional, cell-based
HepG2 [19] = assay: Anticancer activity against human HepG2 cells assessed as inhibition of cell growth incubated for 24 hrs by MTT assay; assay type: functional, cell-based; conditions: HepG2, 24 h
MCF7 [20] = assay: Anticancer activity against human MCF7 cells assessed as inhibition of cell growth incubated for 24 hrs by MTT assay; assay type: functional, cell-based; conditions: MCF7, 24 h
[21] = molecular target: T1, Vascular endothelial growth factor receptor 2; assay: Inhibition of human recombinant VEGFR-2 by ELISA method
[22] = molecular target: T1, Vascular endothelial growth factor receptor 2; assay: Inhibition of human recombinant VEGFR-2 kinase activity using poly(Glu-Tyr) at 4:1 ratio as substrate incubated for […] by ELISA method
A549 = assay: Cytotoxicity against human A549 cells assessed as reduction in cell viability incubated for 72 hrs by MTT assay; assay type: functional, cell-based; conditions: A549, 72 h
MDA-MB-231 [23] = assay: Cytotoxicity against human MDA-MB-231 cells assessed as reduction in cell viability incubated for 72 hrs by MTT assay; assay type: functional, cell-based; conditions: MDA-MB-231, 72 h
HeLa = assay: Cytotoxicity against human HeLa cells assessed as reduction in cell viability incubated for 24 hrs by MTT assay; assay type: functional, cell-based
[24] = molecular target: T1, Vascular endothelial growth factor receptor 2; assay: Inhibition of VEGFR-2 (unknown origin)
[25] = molecular target: T1, Vascular endothelial growth factor receptor 2; assay: Inhibition of recombinant VEGFR-2 (unknown origin); remark: listed apart in the source
HepG2 [26] = assay: Anticancer activity against human HepG2 cells assessed as reduction in cell viability measured after 72 hrs by MTT assay; assay type: functional, cell-based; conditions: HepG2, 72 h
[27] = molecular target: T1, Vascular endothelial growth factor receptor 2; assay: Inhibition of human recombinant VEGFR-2
[28] = molecular target: T1, Vascular endothelial growth factor receptor 2; assay: Inhibition of human VEGFR-2 kinase activity using poly(Glu-Tyr) at 4:1 ratio as substrate preincubated for 30 mins followed by compound addition incubated for 1 hrs by ELISA

T1 sequence (P35968 whole entry, the tested form may be a part): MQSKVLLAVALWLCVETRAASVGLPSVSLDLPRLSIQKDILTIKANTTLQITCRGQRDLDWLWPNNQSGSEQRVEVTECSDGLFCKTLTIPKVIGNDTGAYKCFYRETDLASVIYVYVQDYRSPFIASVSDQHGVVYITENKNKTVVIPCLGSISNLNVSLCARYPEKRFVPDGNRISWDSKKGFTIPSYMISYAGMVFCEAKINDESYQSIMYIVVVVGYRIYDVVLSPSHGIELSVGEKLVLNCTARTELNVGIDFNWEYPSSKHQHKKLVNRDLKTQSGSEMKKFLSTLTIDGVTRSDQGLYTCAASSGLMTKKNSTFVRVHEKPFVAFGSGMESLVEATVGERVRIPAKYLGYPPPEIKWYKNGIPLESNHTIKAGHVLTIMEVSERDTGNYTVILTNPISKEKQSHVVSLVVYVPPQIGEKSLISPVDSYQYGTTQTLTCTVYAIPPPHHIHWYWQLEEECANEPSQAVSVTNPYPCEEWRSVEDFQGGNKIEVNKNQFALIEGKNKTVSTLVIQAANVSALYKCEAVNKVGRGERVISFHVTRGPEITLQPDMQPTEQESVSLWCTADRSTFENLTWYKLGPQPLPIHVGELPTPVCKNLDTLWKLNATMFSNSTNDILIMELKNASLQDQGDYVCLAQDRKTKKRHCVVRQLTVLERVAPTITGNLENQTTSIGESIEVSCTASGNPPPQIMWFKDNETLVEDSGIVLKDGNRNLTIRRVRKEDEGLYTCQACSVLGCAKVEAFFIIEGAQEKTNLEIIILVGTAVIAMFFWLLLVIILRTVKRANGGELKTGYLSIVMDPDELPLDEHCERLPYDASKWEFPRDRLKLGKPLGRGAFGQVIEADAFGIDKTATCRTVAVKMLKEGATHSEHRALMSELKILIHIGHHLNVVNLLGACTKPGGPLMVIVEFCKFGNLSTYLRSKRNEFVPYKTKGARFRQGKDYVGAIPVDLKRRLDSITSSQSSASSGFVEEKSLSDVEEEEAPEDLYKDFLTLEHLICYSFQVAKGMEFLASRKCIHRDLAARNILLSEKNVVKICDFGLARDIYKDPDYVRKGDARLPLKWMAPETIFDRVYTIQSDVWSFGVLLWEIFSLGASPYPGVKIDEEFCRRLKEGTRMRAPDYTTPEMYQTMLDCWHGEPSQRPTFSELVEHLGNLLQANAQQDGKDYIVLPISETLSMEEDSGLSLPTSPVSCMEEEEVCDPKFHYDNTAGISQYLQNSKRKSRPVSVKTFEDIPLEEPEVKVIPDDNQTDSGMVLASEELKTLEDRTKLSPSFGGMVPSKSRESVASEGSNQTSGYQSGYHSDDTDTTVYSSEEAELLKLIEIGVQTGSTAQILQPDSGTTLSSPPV

For `CC(=O)N1N=C(C2CCCO2)CC1c1cn(-c2ccccc2)nc1-c1cccc([N+](=O)[O-])c1` (stereo not given), which IC50 [1] is on record?
Its IC50 is 220 nM.

With `Cc1ccc(NC(=O)c2ccc(NC(=O)CN3C(=O)S/C(=C/c4ccccc4)C3=O)cc2)cc1` as the molecule, how does the IC50 [2] read?
Its IC50 is 250 nM.

With `COc1cc(/C=C2\CCCn3c2nc2c(cnn2C)c3=O)cc(OC)c1OC` as the molecule, how does the IC50 [3] read?
The IC50 was 13.2 nM.

What about the IC50 (MDA-MB-231 [4]) of the same molecule?
The IC50 was 14.2 nM.

With `CC(=O)c1ccc(NC(=O)CSC2=NC(=O)C(C#N)C(c3ccccc3)N2)cc1` (stereo not given) as the molecule, how does the IC50 [5] read?
Its IC50 is 386 nM.

With `CCOc1ccc(Nc2nnc3c4c(cccc24)NC(=S)N3Cc2ccccc2)cc1` as the molecule, how does the IC50 [6] read?
The IC50 was 30 nM.

With `NC(=O)CCn1cc(-c2ccc3ncnc(Nc4cc(O)ccc4F)c3c2)nn1` as the molecule, how does the IC50 [7] read?
Its IC50 is 12 nM.

With `COc1cc(-c2cc(-c3ccc4ccccc4c3)nc(NN)c2C#N)ccc1O` as the molecule, how does the IC50 [8] read?
The IC50 was 0.19 nM.

For `COc1cc(C2NC(SCC(=O)Nc3ccc(C(C)=O)cc3)=NC(=O)C2C#N)cc(OC)c1OC` (stereo not given), which IC50 [5] is on record?
Its IC50 is 199 nM.

Which IC50 [8] does the source give for `N#Cc1c(-c2ccc([N+](=O)[O-])cc2)cc(-c2ccc3ccccc3c2)nc1NN` here?
Its IC50 is 0.34 nM.

With `COc1ccc(C2=Nn3c(N/N=C4\C(=O)Nc5ccc(F)cc54)nnc3SC2)cc1` as the molecule, how does the IC50 [9] read?
The IC50 was 435 nM.

Which IC50 [10] does the source give for `Cc1ccc(C)c(NC(=O)CSc2nc3ccccc3c(=O)n2-c2ccc(S(N)(=O)=O)cc2)c1` here?
Its IC50 is 480 nM.

For `N=c1cc(N)nc2sc(NC(=O)c3cccs3)nn12`, which IC50 [11] is on record?
The IC50 was 8.2 nM.

For `CCn1c(SCC(=O)NNC(=O)c2ccccc2)nc2ccc([N+](=O)[O-])cc2c1=O`, which IC50 (PC-3) is on record?
Its IC50 is 26100 nM.

And the IC50 (HepG2 [12])?
The IC50 was 17200 nM.

What about the IC50 (MCF7 [13]) of the same molecule?
Its IC50 is 30800 nM.

What about the IC50 [14] of the same molecule?
Its IC50 is 4600 nM.

With `Cc1nc2ccccc2n(CC(=O)Nc2ccc(C(=O)NNC(=O)c3ccccc3O)cc2)c1=O` as the molecule, how does the IC50 [15] read?
The IC50 was 1190 nM.

With `O=C(NC1=NN2C(=O)/C(=C\c3ccco3)N=C2S1)c1cccs1` as the molecule, how does the IC50 [11] read?
Its IC50 is 9.4 nM.

Which IC50 [16] does the source give for `O=C(N/N=C/c1ccc(Cl)cc1)c1ccc(Nc2ncnc3sc4c(c23)CCCC4)cc1` here?
Its IC50 is 230 nM.

For `Cc1nc2ccccc2n(CC(=O)Nc2ccc(C(=O)NC(C)(C)C)cc2)c1=O`, which IC50 (MCF7 [17]) is on record?
Its IC50 is 7700 nM.

What about the IC50 (HepG2 [18]) of the same molecule?
Its IC50 is 4500 nM.

Which IC50 (HepG2 [19]) does the source give for `COc1ccc(NC(=O)c2ccc(NC(=O)CSc3nnc4c5nncn5c5ccccc5n34)cc2)cc1` here?
The IC50 was 3300 nM.

And the IC50 (MCF7 [20])?
Its IC50 is 4400 nM.

What about the IC50 [21] of the same molecule?
Its IC50 is 3200 nM.

Which IC50 [22] does the source give for `COc1cc(/C=C/C(=O)c2ccc(N3CCNCC3)cc2)ccc1F` here?
The IC50 was 570 nM.

Which IC50 [2] does the source give for `O=C(CN1C(=O)S/C(=C/c2ccccc2)C1=O)Nc1ccc(C(=O)NCc2ccccc2)cc1` here?
The IC50 was 280 nM.

Which IC50 [2] does the source give for `CCc1ccc(NC(=O)c2ccc(NC(=O)CN3C(=O)S/C(=C/c4ccccc4)C3=O)cc2)cc1` here?
The IC50 was 220 nM.

With `NC(=O)CCn1cc(-c2ccc3ncnc(Nc4ccc(F)c(O)c4)c3c2)nn1` as the molecule, how does the IC50 [7] read?
Its IC50 is 64 nM.

Which IC50 [1] does the source give for `O=[N+]([O-])c1cccc(-c2nn(-c3ccccc3)cc2C2CC(C3CCCO3)=NN2c2ccccc2)c1` (stereo not given) here?
The IC50 was 910 nM.

For `CCOC(=O)CSc1nc2ccc(C)cc2c(=O)n1-c1ccc(F)cc1`, which IC50 (A549) is on record?
The IC50 was 570 nM.

And the IC50 (MDA-MB-231 [23])?
Its IC50 is 1190 nM.

What about the IC50 (HeLa) of the same molecule?
Its IC50 is 1260 nM.

Which IC50 [24] does the source give for `COC(C)Oc1cc2ncnc(Oc3ccc(NC(=O)C4(C(=O)Nc5ccc(F)cc5)CC4)cc3)c2c2c1OCCO2` (stereo not given) here?
Its IC50 is 8.8 nM.

Which IC50 [15] does the source give for `Cc1nc2ccccc2n(CC(=O)Nc2ccc(C(=O)NCc3ccccc3)cc2)c1=O` here?
The IC50 was 1090 nM.

With `O=C(CCSc1nc2ccccc2o1)Nc1ccc(S(=O)(=O)NC(=O)NC2CCCCC2)cc1` as the molecule, how does the IC50 [25] read?
Its IC50 is 80 nM.

Which IC50 [8] does the source give for `N#Cc1c(-c2ccc(Cl)cc2)cc(-c2ccc3ccccc3c2)nc1NN` here?
The IC50 was 0.25 nM.

With `CC1=NN(c2ccc([N+](=O)[O-])cc2[N+](=O)[O-])C(=O)/C1=C\c1cn(-c2ccccc2)nc1-c1cccc([N+](=O)[O-])c1` as the molecule, how does the IC50 [1] read?
Its IC50 is 820 nM.

Which IC50 [10] does the source give for `COc1cccc(CNC(=O)CSc2nc3ccccc3c(=O)n2-c2ccc(S(N)(=O)=O)cc2)c1OC` here?
The IC50 was 240 nM.

For `C/C(=N\NC(=O)c1ccc(Nc2ncnc3sc4c(c23)CCCC4)cc1)c1ccccc1`, which IC50 [16] is on record?
Its IC50 is 360 nM.

For `Fc1ccc(Nc2nnc3c4c(cccc24)NC(=S)N3Cc2ccccc2)cc1`, which IC50 [6] is on record?
Its IC50 is 210 nM.

And the IC50 (HepG2 [26])?
The IC50 was 220 nM.

With `COc1cc2ncnc(Oc3ccc(NC(=O)C4(C(=O)Nc5ccc(F)cc5)CC4)cc3F)c2c2c1OCCO2` as the molecule, how does the IC50 [24] read?
Its IC50 is 3.5 nM.

Which IC50 [27] does the source give for `N#C/C(=C\c1cccs1)c1nnc(NC(=O)c2ccco2)s1` here?
Its IC50 is 7.6 nM.

With `N#CCc1nnc(NC(=O)c2ccco2)s1` as the molecule, how does the IC50 [27] read?
The IC50 was 7.4 nM.

For `COC(C)Oc1cc2ncnc(Oc3ccc(NC(=O)C4(C(=O)Nc5ccc(F)cc5)CC4)cc3F)c2c2c1OCCO2` (stereo not given), which IC50 [24] is on record?
Its IC50 is 3.6 nM.

For `O=C(CSc1nnc2c3nncn3c3ccccc3n12)Nc1ccc(C(=O)Nc2cncs2)cc1`, which IC50 [21] is on record?
Its IC50 is 3100 nM.

Which IC50 [22] does the source give for `O=C(/C=C/c1cccc(F)c1)c1ccc(N2CCNCC2)cc1` here?
The IC50 was 800 nM.

With `Cc1ccc(S(=O)(=O)Nc2ccc(-c3cc(-c4cccc(F)c4)c(C#N)c(N)n3)cc2)cc1` as the molecule, how does the IC50 [28] read?
Its IC50 is 3620 nM.

Which IC50 [14] does the source give for `O=C(CSc1nc2ccc([N+](=O)[O-])cc2c(=O)n1-c1ccccc1)NNC(=O)c1ccccc1` here?
Its IC50 is 4800 nM.
